From patent US6200994A, “1,4-Disubstituted cyclohexane derivatives for the treatment of depression” (American Home Products Corp, priority 1999, dated 2001) come the findings set out here.

In general, inhibition refers to the percentage by which the read-out fell short of the control. A lower inhibition goes with little suppression. In general, Ki refers to a dissociation constant, usually derived from enzyme kinetics or from competition with a known ligand.

The target of one test is T1, human 5-HT1A receptor (Homo sapiens, UniProt P08908).
T1 construct: expressed in transfected cells
T1 sequence (P08908 1-422): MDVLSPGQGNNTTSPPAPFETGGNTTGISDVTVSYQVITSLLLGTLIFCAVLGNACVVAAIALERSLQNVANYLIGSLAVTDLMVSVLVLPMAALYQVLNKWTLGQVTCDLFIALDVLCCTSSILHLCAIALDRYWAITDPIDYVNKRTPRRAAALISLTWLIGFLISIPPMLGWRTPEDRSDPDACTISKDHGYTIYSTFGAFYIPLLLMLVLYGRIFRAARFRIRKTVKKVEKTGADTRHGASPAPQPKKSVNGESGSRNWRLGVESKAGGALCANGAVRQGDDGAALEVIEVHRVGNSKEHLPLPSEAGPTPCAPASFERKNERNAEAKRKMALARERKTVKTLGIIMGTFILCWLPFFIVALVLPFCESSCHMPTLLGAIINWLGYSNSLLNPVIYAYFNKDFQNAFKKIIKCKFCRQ
Kind of test: [3H]8-OH-DPAT binding to human 5-HT1A receptor in CHO cell membranes. The protocol: The PCR cloning of the human 5-HT1A receptor subtype from a human genomic library has been described previously by Chanda et al., Mol. Pharmacol., 43:516 (1993). A stable Chinese hamster ovary cell line expressing the human 5-HT1A receptor subtype (5-HT1A.CHO cells) was employed throughout this study. Cells were maintained in DMEM supplemented with 10% fetal calf serum, non-essential amino acids and penicillin/ streptomycin.
Cells were grown to 95-100% confluency as a monolayer before membranes were harvested for binding studies. Cells were gently scraped from the culture plates, transferred to centrifuge tubes, and washed twice by centrifugation (2000 rpm for 10 min., 4° C.) in buffer (50 mM Tris; pH 7.5). The resulting pellets were aliquoted and maintained at -80.C. On the day of assay, the cells were thawed on ice, and resuspended in buffer. Studies were conducted using [^3 H]8-OH-DPAT as the radioligand. The binding assay was performed in 96 well microtiter plates in a final total volume of 250 μL of buffer. Comparison experiments were performed by using 7 concentrations of unlabelled drug and a final ligand concentration of 1.5 nM. Non-specific binding was determined in the presence of 10 μM 5HT. Saturation analysis was conducted by using [^3 H]8-OH-DPAT at concentrations ranging from 0.3-30 nM. […]

The next test concerns the target T2, serotonin transporter (Rattus norvegicus, UniProt P31652).
T2 construct: frontal cortical membranes prepared from male Sprague-Dawley rats; from tissue; host or cells: frontal cortex membranes of male Sprague-Dawley rats
Briefly: 3H-paroxetine binding, affinity for the serotonin transporter (ST) in frontal cortical membranes. Also noted: species or system male Sprague-Dawley rats. To be noted: 1 h, @ 100 nM. The protocol: A protocol similar to that used by Cheetham et al., Neuropharmacol., 32:737 (1993) was used to determine the affinity of compounds for the serotonin transporter. Briefly, frontal cortical membranes prepared from male Sprague-Dawley rats were incubated with ^3 H-paroxetine (0.1 nM) for 60 min at 25° C. All tubes also contained either vehicle, test compound (one to eight concentrations), or a saturating concentration of fluoxetine (10 μM) to define […]. All reactions were terminated by the addition of ice cold Tris buffer followed by rapid filtration using a Tom Tech filtration device to separate bound from free ^3 H-paroxetine. Bound radioactivity was quantitated using a Wallac 1205 Beta Plate® counter. Nonlinear regression analysis was used to determine IC50 values which were converted to Ki values using the method set forth in Cheng and Prusoff, Biochem. Pharmacol., 22:3099 (1973) (Ki=IC50/((Radioligand conc.)/(1+KD)).

T2 sequence (P31652 whole entry): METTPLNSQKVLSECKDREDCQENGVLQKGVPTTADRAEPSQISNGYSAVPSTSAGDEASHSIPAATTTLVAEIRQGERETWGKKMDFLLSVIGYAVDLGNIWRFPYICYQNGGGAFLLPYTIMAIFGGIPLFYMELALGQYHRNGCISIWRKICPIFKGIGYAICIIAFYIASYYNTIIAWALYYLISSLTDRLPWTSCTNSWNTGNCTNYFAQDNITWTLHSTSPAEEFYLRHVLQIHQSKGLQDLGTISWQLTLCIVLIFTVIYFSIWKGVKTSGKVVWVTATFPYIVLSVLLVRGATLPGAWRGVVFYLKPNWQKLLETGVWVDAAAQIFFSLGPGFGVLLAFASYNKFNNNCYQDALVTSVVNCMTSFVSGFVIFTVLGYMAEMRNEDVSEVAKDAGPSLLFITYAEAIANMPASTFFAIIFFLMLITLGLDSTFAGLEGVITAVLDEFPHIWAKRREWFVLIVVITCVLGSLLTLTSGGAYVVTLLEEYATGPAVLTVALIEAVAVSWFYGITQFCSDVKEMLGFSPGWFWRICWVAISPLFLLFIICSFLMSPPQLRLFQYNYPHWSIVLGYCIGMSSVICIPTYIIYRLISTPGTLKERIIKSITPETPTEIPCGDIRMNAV

At human 5-HT1A receptor (0.5 h, @ 1000 nM, [3H]8-OH-DPAT), `COc1ccsc1C1=CCN([C@H]2CC[C@@H](c3c[nH]c4ccc(F)cc43)CC2)CC1` [Example 1, 5-Fluoro-3-{(1,4-cis)-4-[4-(3-methoxy-thiophen-2-yl)-3,6-dihydro-2H-pyridin-1-yl]-cyclohexyl}-1H-indole] came in with an inhibition at 1 µM of 48%.

Take `COc1ccsc1C1=CCN([C@H]2CC[C@H](c3c[nH]c4ccc(F)cc43)CC2)CC1` [Example 2, 5-Fluoro-3-{(1,4-trans)-4-[4-(3-methoxy-thiophen-2-yl)-3,6-dihydro-2H-pyridin-1-yl]-cyclohexyl}-1H-indole]: the affinity at human 5-HT1A receptor, expressed as Ki, was 20.4 nM. The same compound yielded an inhibition at 0.1 µM at serotonin transporter of 18%.
